The source of these data is US20220273659A1, “HETEROCYCLIC COMPOUNDS AS KINASE INHIBITORS” (NUVATION BIO INC., priority 2019, published 2022).

For one assay, the target named is T1, CDK2 (cyclin A) (Homo sapiens, UniProt P24941).
T1 construct: purchased Invitrogen Life Technologies (assay service)
In words: Z'-LYTE kinase assay. Format: biochemical. The protocol: IC50 values of compounds against CDK2 (cyclin A) were determined by Z′-LYTE™ These screening assays were performed at Invitrogen Life Technologies (Grand Island, N.Y.) on a low volume NBS, black 384-well plate (#4514, Corning). 0.1 μL of 100×test compound in 100% DMSO (at specific solutions) was mixed with 2.4 μL of Kinase Buffer (50 mM HEPES pH 7.5, 0.01% BRIJ-35, 10 mM MgCl2, 1 mM EGTA), 5 μL of 2× Kinase (1.22-10.3 ng CDK2/cyclin A)/Peptide (2 μM Ser/Thr 12), and 2.5 μL of 4×ATP solution (31 μM). The plates were shaken for 30 seconds, and incubated for 60 minutes at room temperature. Development Reagent Solution (5 μL of 1:1024 dilution) was added to the plates followed with another 30-second plate shake and the plates were further incubated at room temperature for one hour. The plates were read on fluorescence plate reader with Dual emission at 445 nm and 520 nm.
The following equations were used for Z′-LYTE™ Screening Assay Data Analysis. Percent inhibition (100-% activity) was fitted to the “four-parameter logistic model” in XLfit for determination of IC50 values.

The next assay concerns the target T2, CDK1 (cyclin B) (Homo sapiens, UniProt P06493).
T2 construct: purchased Invitrogen Life Technologies (assay service)
As to the kind of experiment: Z'-LYTE kinase assay. The assay is classed as biochemical. As for the experimental part: The plates were shaken for 30 seconds, and incubated for 60 minutes at room temperature. […] The plates were read on fluorescence plate reader with Dual emission at 445 nm and 520 nm.
The following equations were used for Z′-LYTE™ Screening Assay Data Analysis.

For assay [1], the system named is DU4475 breast carcinoma cells. As to the kind of experiment: Cancer cell proliferation assay, single agent (cell viability). The assay is classed as cell-based. The settings on record: Homo sapiens, DU-4475; Table 4; Rb negative; treatment 144 Hr with medium change at 72 Hr; Cell Titer-Glo or resazurin. Summed up: (§1)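 Viability read by resazurin or CellTiter-Glo after 24 h treatment (BT-549) or 144 h with a 72 h medium change (MCF-7, DU4475). Compounds tested at 7–9 concentrations, e.g. 1.1 nM–10 μM, added the day after seeding; IC50 by nonlinear sigmoidal regression.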
For orientation: ATP-based viability assays read luminescence as a measure of living cells.

Assay [2] deals with MCF-7 breast adenocarcinoma cells. The description is as above. The assay is classed as cell-based. The note with it: Homo sapiens, MCF7, Table 4; Rb positive; treatment 144 Hr with medium change at 72 Hr; Cell Titer-Glo or resazurin. Summed up: as §1
In a further assay the target is T3, CDK6 (Homo sapiens, UniProt Q00534).
T3 construct: purchased Invitrogen PR8422B
T3 sequence (Q00534 whole entry): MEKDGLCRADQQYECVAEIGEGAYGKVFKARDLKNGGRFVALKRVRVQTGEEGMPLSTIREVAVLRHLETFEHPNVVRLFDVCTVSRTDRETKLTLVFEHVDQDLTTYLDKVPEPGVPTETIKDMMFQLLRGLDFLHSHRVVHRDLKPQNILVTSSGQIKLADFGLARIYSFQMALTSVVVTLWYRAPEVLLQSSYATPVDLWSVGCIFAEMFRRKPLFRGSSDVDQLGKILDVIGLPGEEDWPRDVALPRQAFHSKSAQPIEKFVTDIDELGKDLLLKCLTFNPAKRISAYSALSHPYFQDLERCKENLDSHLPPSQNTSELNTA
T3 sequence (P24385 whole entry partner): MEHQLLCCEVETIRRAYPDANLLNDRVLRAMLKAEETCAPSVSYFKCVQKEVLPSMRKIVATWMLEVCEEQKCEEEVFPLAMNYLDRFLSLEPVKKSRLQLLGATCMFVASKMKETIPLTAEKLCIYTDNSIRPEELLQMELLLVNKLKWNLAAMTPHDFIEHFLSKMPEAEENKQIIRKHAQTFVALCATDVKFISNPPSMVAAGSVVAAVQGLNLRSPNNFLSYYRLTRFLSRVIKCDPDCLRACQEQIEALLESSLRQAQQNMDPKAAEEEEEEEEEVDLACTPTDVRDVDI
As to the kind of experiment: In vitro kinase inhibition IC50, luminescence (ADP Glo), retinoblastoma substrate. The assay is classed as biochemical. The settings on record: read-out: CDK6/D1 IC50. In outline:
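IC50 derived by four-parameter logistic fit of percent inhibition, read as ADP-Glo luminescence. Reactions: 5 nM CDK6, 1 μM retinoblastoma, 25 μM ATP, test compound 0.1–200 nM final, 2 h at room temperature.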
(In general: ADP-Glo first removes unused ATP, then detects ADP through luciferase.)

A further assay concerns the target T4, CDK4 (Homo sapiens, UniProt P11802).
T4 construct: purchased Invitrogen PR8064A
The description is as above. The assay is classed as biochemical. The note with it: read-out: CDK4/D1 IC50. Summed up: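 Inhibition of CDK4 was quantified by ADP Glo luminescence with retinoblastoma as substrate. Reactions held 5 nM kinase, 1 μM retinoblastoma and 25 μM ATP and ran 2H at room temperature. A Synergy Neo reader took signals 15 min and 45 min after detection reagent, and percent inhibition was fitted to a four-parameter logistic model in XLfit to obtain IC50.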

Like-named read-outs stand apart in the source and are kept apart here.

T4 sequence (P11802 whole entry): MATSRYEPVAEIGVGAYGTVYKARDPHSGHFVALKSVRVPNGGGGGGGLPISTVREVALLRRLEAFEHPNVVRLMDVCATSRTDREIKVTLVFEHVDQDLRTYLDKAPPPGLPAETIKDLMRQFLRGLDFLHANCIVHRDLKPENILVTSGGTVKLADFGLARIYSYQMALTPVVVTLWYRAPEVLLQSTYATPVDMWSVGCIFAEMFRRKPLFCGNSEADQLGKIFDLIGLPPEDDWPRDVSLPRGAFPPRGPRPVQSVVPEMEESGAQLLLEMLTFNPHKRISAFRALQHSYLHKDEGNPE
T4 sequence (P24385 whole entry partner): as the sequence (P24385 whole entry partner) above
T2 sequence (P06493 whole entry): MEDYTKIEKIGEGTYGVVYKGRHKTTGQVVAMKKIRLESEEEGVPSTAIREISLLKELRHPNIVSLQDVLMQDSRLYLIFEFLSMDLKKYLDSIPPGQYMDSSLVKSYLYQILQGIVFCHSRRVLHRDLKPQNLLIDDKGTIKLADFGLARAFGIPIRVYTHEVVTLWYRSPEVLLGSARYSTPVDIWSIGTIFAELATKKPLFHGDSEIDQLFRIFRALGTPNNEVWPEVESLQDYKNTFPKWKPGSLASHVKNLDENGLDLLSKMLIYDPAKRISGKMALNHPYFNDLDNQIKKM
T2 sequence (P14635 whole entry partner): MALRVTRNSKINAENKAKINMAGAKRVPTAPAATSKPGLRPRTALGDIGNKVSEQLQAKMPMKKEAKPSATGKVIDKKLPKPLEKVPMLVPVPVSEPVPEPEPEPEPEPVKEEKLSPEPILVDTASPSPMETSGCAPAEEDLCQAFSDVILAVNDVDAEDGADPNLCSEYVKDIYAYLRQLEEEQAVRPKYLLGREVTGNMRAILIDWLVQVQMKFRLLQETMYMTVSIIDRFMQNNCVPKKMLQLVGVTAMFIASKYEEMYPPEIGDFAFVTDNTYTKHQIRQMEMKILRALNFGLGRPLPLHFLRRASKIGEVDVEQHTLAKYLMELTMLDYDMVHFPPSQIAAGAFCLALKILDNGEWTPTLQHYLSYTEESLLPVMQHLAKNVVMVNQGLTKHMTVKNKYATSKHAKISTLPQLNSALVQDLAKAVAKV

As to `CCCCCc1ccc(S(=O)(=O)N2CCC(Nc3ncc4cc(C#N)c(=O)n(C5CCCC5)c4n3)CC2)cc1` [Compound No. 381, 8-cyclopentyl-7-oxo-2-(1-(4-pentylphenylsulfonyl)piperidin-4-ylamino)-7,8-dihydropyrido[2,3-d]pyrimidine-6-carbonitrile], the IC50 at CDK2 (cyclin A) was 57 nM; at CDK1 (cyclin B) (read-out: CDK1/B IC50), > 3570 nM; in assay [1] it was > 10000 nM; in assay [2], 743 nM; at CDK6, 120 nM; on CDK4, > 200 nM.
Turning to `CS(=O)(=O)N1CCC(Nc2cc3c(cn2)cc(C#N)c(=O)n3C2CCCC2)CC1` [Compound No. 303, 1-cyclopentyl-7-((1-(methylsulfonyl)piperidin-4-yl)amino)-2-oxo-1,2-dihydro-1,6-naphthyridine-3-carbonitrile], the IC50 is 4.5 nM against CDK2 (cyclin A); 97 nM on CDK1 (cyclin B) (read-out: CDK1/B IC50); 710 nM in assay [1]; 660 nM in assay [2]; 3 nM on CDK6; 3 nM at CDK4.
With `CS(=O)(=O)N1CCC(Nc2ncc3cc(C#N)c(=O)n(C45CC(C4)C5)c3n2)CC1` [Compound No. 369, 8-(bicyclo[1.1.1]pentan-1-yl)-2-((1-(methylsulfonyl)piperidin-4-yl)amino)-7-oxo-7,8-dihydropyrido[2,3-d]pyrimidine-6-carbonitrile], the IC50 on CDK2 (cyclin A) was determined as 7 nM; on CDK1 (cyclin B) (read-out: CDK1/B IC50), 87 nM; in assay [1] it was 670 nM; in assay [2] it was 107 nM; on CDK6, 5.5 nM; on CDK4, 7 nM.
As to `N#Cc1cc2cnc(Nc3ccc4c(c3)CCN(C(=O)CO)C4)nc2n(C2CCCC2)c1=O` [Compound No. 70, 8-cyclopentyl-2-((2-(2-hydroxyacetyl)-1,2,3,4-tetrahydroisoquinolin-6-yl)amino)-7-oxo-7,8-dihydropyrido[2,3-d]pyrimidine-6-carbonitrile], the IC50 at CDK2 (cyclin A) came out at 27 nM; on CDK1 (cyclin B) (read-out: CDK1/B IC50), 354 nM; in assay [1] it was 1180 nM; in assay [2] it was 818 nM; on CDK6 it was 6 nM; on CDK4, 12 nM.
Regarding `CS(=O)(=O)N1CCC(Nc2ncc3cc(C#N)c(=O)n([C@H]4CCC(F)(F)C4)c3n2)CC1` [Compound No. 384, (S)-8-(3,3-difluorocyclopentyl)-2-(1-(methylsulfonyl)piperidin-4-ylamino)-7-oxo-7,8-dihydropyrido[2,3-d]pyrimidine-6-carbonitrile], the IC50 against CDK2 (cyclin A) is 28 nM; on CDK1 (cyclin B), 585 nM; in assay [1], 5680 nM; in assay [2], 1600 nM; on CDK6, 20 nM; at CDK4 it was 24 nM.
`CS(=O)(=O)N1CCC(Nc2ncc3cc(C#N)c(=O)n([C@@H]4CCC(F)(F)C4)c3n2)CC1` [Compound No. 385, (R)-8-(3,3-difluorocyclopentyl)-2-(1-(methylsulfonyl)piperidin-4-ylamino)-7-oxo-7,8-dihydropyrido[2,3-d]pyrimidine-6-carbonitrile]: the IC50 against CDK2 (cyclin A) is 96 nM; against CDK1 (cyclin B) it was 2620 nM; in assay [1], > 10000 nM; in assay [2], 2820 nM; on CDK6 it was 65 nM; at CDK4, 49 nM.
In the case of `N#Cc1cc2cnc(Nc3ccc4c(n3)CCNC4)nc2n(C2CCCC2)c1=O` [Compound No. 61, 8-cyclopentyl-7-oxo-2-((5,6,7,8-tetrahydro-1,6-naphthyridin-2-yl)amino)-7,8-dihydropyrido[2,3-d]pyrimidine-6-carbonitrile], the IC50 against CDK2 (cyclin A) was 2780 nM; at CDK1 (cyclin B) (read-out: CDK1/B IC50), > 5000 nM; in assay [1], 4480 nM; in assay [2], 2730 nM; at CDK6, 54 nM; on CDK4 it was 98 nM.
For the compound `C[C@@]1(O)CCC[C@H]1n1c(=O)c(C#N)cc2cnc(NC3CCN(S(C)(=O)=O)CC3)nc21` [Compound No. 380, 8-((1R,2R)-2-hydroxy-2-methylcyclopentyl)-2-(1-(methylsulfonyl)piperidin-4-ylamino)-7-oxo-7,8-dihydropyrido[2,3-d]pyrimidine-6-carbonitrile], the IC50 on CDK2 (cyclin A) is 5.5 nM; at CDK1 (cyclin B) (read-out: CDK1/B IC50), 55 nM; in assay [1], 715 nM; in assay [2] it was 1220 nM; on CDK6, 15 nM; at CDK4 it was 30 nM.
As to `N#Cc1cc2cnc(Nc3ccc4c(c3)CCN(CC(N)=O)C4)nc2n(C2CCCC2)c1=O` [Compound No. 69, 2-(6-((6-cyano-8-cyclopentyl-7-oxo-7,8-dihydropyrido[2,3-d]pyrimidin-2-yl)amino)-3,4-dihydroisoquinolin-2(1H)-yl)acetamide], the IC50 against CDK2 (cyclin A) was 252 nM; at CDK1 (cyclin B) (read-out: CDK1/B IC50), 683 nM; in assay [1] it was 1680 nM; in assay [2] it was 1990 nM; at CDK6, 7 nM; on CDK4 it was 12 nM.
As to `N#Cc1cc2cnc(Nc3ccc4c(c3)CN(CCN)CC4)nc2n(C2CCCC2)c1=O` [Compound No. 65, 2-((2-(2-aminoethyl)-1,2,3,4-tetrahydroisoquinolin-7-yl)amino)-8-cyclopentyl-7-oxo-7,8-dihydropyrido[2,3-d]pyrimidine-6-carbonitrile], the IC50 on CDK2 (cyclin A) stood at 169 nM; at CDK1 (cyclin B) (read-out: CDK1/B IC50) it was 791 nM; in assay [1] it was 1990 nM; in assay [2], 569 nM; on CDK6, 15 nM; at CDK4, 17 nM.
Consider `CC(C)S(=O)(=O)N1CCC(Nc2ncc3cc(C#N)c(=O)n(C4CCCC4)c3n2)CC1` [Compound No. 355, 8-cyclopentyl-2-((1-(isopropylsulfonyl)piperidin-4-yl)amino)-7-oxo-7,8-dihydropyrido[2,3-d]pyrimidine-6-carbonitrile], for which the IC50 against CDK2 (cyclin A) was 20 nM; against CDK1 (cyclin B), 362 nM; in assay [1], 1520 nM; in assay [2] it was 495 nM; on CDK6, 8 nM; on CDK4, 6.5 nM.
For the compound `CCCCCCc1ccc(S(=O)(=O)N2CCC(Nc3ncc4cc(C#N)c(=O)n(C5CCCC5)c4n3)CC2)cc1` [Compound No. 382, 8-cyclopentyl-2-(1-(4-hexylphenylsulfonyl)piperidin-4-ylamino)-7-oxo-7,8-dihydropyrido[2,3-d] pyrimidine-6-carbonitrile], the IC50 against CDK2 (cyclin A) is 209 nM; on CDK1 (cyclin B) (read-out: CDK1/B IC50) it was > 4860 nM; in assay [1], > 10000 nM; in assay [2], 1840 nM; on CDK6 it was > 200 nM; at CDK4, > 200 nM.
As to `N#Cc1cc2cnc(NC3CCN(S(=O)(=O)N4CCOCC4)CC3)nc2n(C2CCCC2)c1=O` [Compound No. 383, 8-cyclopentyl-2-(1-(morpholinosulfonyl)piperidin-4-ylamino)-7-oxo-7,8-dihydropyrido[2,3-d]pyrimidine-6-carbonitrile], the IC50 at CDK2 (cyclin A) was found to be 8 nM; against CDK1 (cyclin B), 233 nM; in assay [1], 2440 nM; in assay [2], 145 nM; on CDK6, 6 nM; on CDK4 it was 11 nM.
Consider `CS(=O)(=O)N1CCC(Nc2ncc3cc(C#N)c(=O)n([C@@H]4C[C@H]5CC[C@@H]4C5)c3n2)CC1` [Compound No. 386, 8-((1R,2R,4S)-bicyclo[2.2.1]heptan-2-yl)-2-(1-(methylsulfonyl)piperidin-4-ylamino)-7-oxo-7,8-dihydropyrido[2,3-d]pyrimidine-6-carbonitrile], for which the IC50 against CDK2 (cyclin A) was determined as 9.5 nM; against CDK1 (cyclin B), 118 nM; in assay [1] it was 870 nM; in assay [2], 270 nM; at CDK6, 4 nM; at CDK4, 5 nM.
